Data set [1] deals with neurofibrillary tangles. Kind of data set: Fluorescence labelling of tangles (sections, ifI tangle suspensions). Type of data set: binding, human. The protocol:
In ifI suspensions such as this, tangles can be seen by blue fluorescence which is […] from that associated with binding of contaminants in the preparation. […] (a) Chemical labelling with the biotinylated benzothiazole analogue shown as 4b in FIG. 4. PHFs were deposited on a carbon-coated grid after Pronase digestion, and incubated briefly with compound 4b, and then incubated with an anti-biotin antibody preparation that had been conjugated with colloidal gold. […] (b) mAb 423 immunolabelling of isolated PHFs after Pronase digestion., followed by incubation with a gold-conjugated goat anti-mouse second antibody as described in Novak et al. 1993 (Novak M, Kabat J, Wischik C M (1993) “Molecular characterisation of the minimal protease-resistant tau unit of the Alzheimers' disease paired helical filament”, EMBO J. 12: 365-370). As shown in this paper, mAb 423 labels PHFs derived from intracellular tangles (which preserve N-terminal tau immunoreactivity in the fuzzy outer coat) poorly, but Pronase digested PHFs strongly.
Serial 16 μm sections are cut from the hippocampus of a case dying with clinically and neuropathologically confirmed AD. […]
A Leitz fluorescence microscope fitted with a photo-multiplyer tube (Model MPV-2) was used to quantitate fluorescence emission. […]

Data set [2] has as its system tangle fragments. Kind of data set: Competitive binding assay: displacement of primulin fluorescence from tangle fragments (ifI). Set-up: species or system human. Conditions: for competition with / displacement of other ligands at tangles: fluorescence end point. The protocol:
IfI material was homogenised in a 0.2 ml glass homogeniser in PBS. To the suspension, test compounds were added to final concentrations ranging from 0.1% to 0.00001%. […] The suspensions were transferred to a glass slide, and examined by fluorescence microscopy across a range of fluorescence filter blocks, covering excitation and emission wavelengths between 380 nm and 570 nm. The end point sought in these observations was displacement of typical primulin fluorescence from tangle fragments.

Data set [3] relates to PHFs. The experiment in a line: Spectrofluorometry of primulin in solution and bound to PHFs (ifII). Type of data set: binding. The protocol:
These measurements were carried out in a Perkin-Elmer spectrofluorimeter (model MPF-3). A concentration of ligand of 0.00001% was routinely used for all measurements. […] All measurements were therefore carried out at a standard excitation wavelength of 370 nm, and a constant slit width of 3 mm.
Further investigations into the relationship between aggregation-dependent tau ligands and tau aggregation inhibitors were carried out using primulin. Primulin in solution has a fluorescence peak at 520 nm. This shifts to 470 nm when primulin is bound within a pure preparation of PHFs (FIG. 6). […] Therefore, binding by such compounds is dependent on the polymerised state of tau found in the PHF, but is not present in free tau.
Compounds have been identified which disrupt the structure of the PHF and reverse the proteolytic stability of the PHF core (see WO 96/30766). Examples of such compounds are shown in accompanying FIG. 8. The present inventors have now identified that these compounds bind to tau at a specific binding site within the high affinity tau-tau binding domain.

The target of data set [4] is T1, tau-tau binding (Homo sapiens, UniProt P10636).
T1 construct: a truncated tau protein corresponding to the core fragment and terminating at Ala390-dGA; dGAE which terminates at Glu-391; made in house; host or cells: E. coli BL21 (DE3), pRK172; DE52 flow-through, P11 phosphocellulose, PEG concentration, no heat step (Preparation 2)
T1 sequence (P10636 614-708 limits assumed): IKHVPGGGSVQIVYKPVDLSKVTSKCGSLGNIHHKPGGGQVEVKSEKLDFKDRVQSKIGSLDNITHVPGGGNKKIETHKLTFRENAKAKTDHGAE
The experiment in a line: Relief of DMMB inhibition of tau-tau binding by ligands (Preparation 2). The class given is biochemical. As to conditions: for BMax of tau-tau binding: Binding=(BMax×[ligand])/(Kd+[ligand]). The source says:
2. using tau proteins prepared in this manner for testing putative ligands in the tau-tau binding assay provided in WO96/30766 to identify substances which have minimal or entirely absent activity as tau-aggregation inhibitors or enhance tau-tau binding at high concentrations; 3. testing putative ligands in the presence of an exemplary potent tau-aggregation inhibitor, such as DMMB, at an inhibitory concentration; 4. putative ligands can be identified by the property that they lack capacity to block tau-tau binding through the repeat domain, but block the inhibitory activity of a potent tau-aggregation inhibitor.
(ii) contacting (a) a tau protein or a derivative thereof containing the tau core fragment bound to a solid phase so as to expose a high affinity tau capture site (e.g. a truncated tau protein corresponding to the core fragment and terminating at Ala390-dGA), with (b) a liquid phase tau protein or derivative thereof capable of binding to the solid phase tau protein or derivative (e.g. dGAE which terminates at Glu-391), and (c) said selected first agent and (d) a second agent known to be tau-tau binding inhibitor, (iii) selecting a first agent which fully or partially relieves the inhibition of binding of the liquid phase tau protein or derivative of (b) to the solid phase tau protein or derivative of (a) by the inhibitor (d).
Similar results are shown for 15 μM DMMB in the presence of increasing concentrations of Primulin (c) and Thiazin Red (d).
For each graph, Tau-Tau binding is shown in the presence of constant concentrations of DMMB co-incubated with Primulin at 0×, 1×, 5×, 10×, 100× the DMMB concentrations shown.
This implies that the Tau-aggregation enhancement effect of these ligands is proportional to the fraction of ligand-binding sites occupied, presumably within the Tau aggregates introduced into the aqueous-phase of the assay. The mean Bmax for both ligands is ˜1.6. That is, the maximum ligand effect is to produce 1.6-fold the Tau-Tau binding signal seen in the absence of any drug. The mean Kd for this effect is ˜15×. That is, for any given concentration of DMMB>4 μM, 50% of maximal enhancement of Tau-Tau binding can be seen when the ligand molar excess is 15-fold relative to the concentration of DMMB.

The results in this text go back to patent publication US8097615B2, “Neurofibrillary labels” (Wista Laboratories Ltd., priority 2001, dated 2012).

SMILES strings stand for the structures. Values joined by “and” are separate entries in the source; they are usually repeats but may differ in a detail not shown here. Equal values may be shown once. “Also recorded” adds a separate entry of the source.

For the compound `Cc1ccc2sc(-c3ccc4sc(-c5ccc(N)cc5)nc4c3)nc2c1S(=O)(=O)[O-].[Na+]` [primulin], the labelling of tangles result in data set [1] is on record as “label tangles”. For the same compound, the activity as ligand result in data set [2] is “active ligands”. Besides, the “competition with / displacement of other ligands at tangles” value is reported as “displace this from tangles” in data set [2] and “displace compound 1b at tangles” in data set [2] (listed as compound 1a). The compound also showed an excitation peak in data set [3] (ligand 0.00001%) of 370 nm. Also, the “fluorescence peak when bound within PHFs” value in data set [3] (pure preparation of PHFs) is 460 nm and 470 nm. In data set [3] (unbound), the “fluorescence (emission) peak in solution” value is 515 nm and 520 nm. The results for the “BMax of tau-tau binding” value in data set [4] (5 μM DMMB) and in data set [4] (25 μM DMMB) were 1.38 and 1.67, respectively. Besides, the “reversal of inhibitory effect of DMMB on tau-tau binding” value in data set [4] (co-incubation with increasing molar excess of ligand) was “progressively attenuated and reversed; also recorded: completely reversed”.
